Test results taken from patent US10308647B2, “Fused imidazole derivatives as IDO/TDO inhibitors” (SciFluor Life Sciences, Inc., priority 2015, dated 2019).
pIC50: −log10 of the molar value.

Tests used:
recombinant IDO1 = recombinant IDO1 (Homo sapiens, UniProt P14902); test: IDO1 enzymatic assay (UV absorption, N-formylkynurenine formation); type: biochemical; conditions: for pIC50: 40 nM IDO1, 900 μM tryptophan, 180 min, room temperature, read-out: Enzyme IDO IC50; for Enzyme IDO IC50 ratio compared to Cmpd 2: IC50 of compound divided by IC50 of reference compound 2
Chain of recombinant IDO1 (P14902 whole entry, species assumed): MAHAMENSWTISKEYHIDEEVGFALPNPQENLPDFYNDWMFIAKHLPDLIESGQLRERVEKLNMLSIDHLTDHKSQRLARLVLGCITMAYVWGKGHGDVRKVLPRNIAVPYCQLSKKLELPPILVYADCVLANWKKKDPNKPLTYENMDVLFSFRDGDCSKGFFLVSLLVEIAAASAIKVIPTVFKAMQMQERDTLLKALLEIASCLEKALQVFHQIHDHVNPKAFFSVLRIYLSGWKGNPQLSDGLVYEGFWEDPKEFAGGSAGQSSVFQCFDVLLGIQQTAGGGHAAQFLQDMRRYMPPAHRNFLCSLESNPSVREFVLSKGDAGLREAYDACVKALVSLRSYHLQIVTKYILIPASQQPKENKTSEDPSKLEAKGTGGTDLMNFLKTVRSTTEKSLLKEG
Description: (§1) The assay was performed by UV absorption using either recombinant IDO1 or TDO2 and L-Tryptophan as substrate. The UV absorption signal at 321 nm was correlated with the amount of N-formylkynurenine reaction product of IDO1 and TDO2.
(§2) The compounds of the present application were diluted in 10% DMSO and 5 μl of the dilution was added to a 100 μl reaction so that the final concentration of DMSO is 0.5% in all reactions.
IDO1 Assay: All of the reactions were conducted at room temperature. The 100 μl reaction mixture in IDO Assay Buffer contains 40 nM IDO1, the indicated amount of the compound, 900 μM tryptophan, and the coupled reaction components. The reaction mixture was incubated for 180 min prior to reading of the UV absorption signal. For the negative control (blank), 5 μl of the assay buffer was added instead of the IDO1.
(§3) Absorption signals were measured using a Tecan Infinite M1000 plate reader.
(§4) Data analysis: Binding experiments were performed in duplicate at each concentration. The data were analyzed using the computer software, Graphpad Prism. In the absence of the compound, the absorption signal (At) in each data set was defined as 100% activity. In the absence of the IDO1, the absorption signal (Ab) in each data set was defined as 0% activity. The percent activity in the presence of each compound was calculated according to the following equation: % activity=[(A−Ab)/(At−Ab)]×100, where A=the absorption signal in the presence of the compound. The percent inhibition was calculated according to the following equation: % inhibition=100−% activity. The values of % activity versus a series of compound concentrations were then plotted using non-linear regression analysis of Sigmoidal dose-response curve generated with the equation Y=B+(T−B)/1+10^((LogIC50−X)×Hill Slope), where Y=percent activity, B=minimum percent activity, T=maximum percent activity, X=logarithm of compound and Hill Slope=slope factor or Hill coefficient. The IC50 value was determined by the concentration causing a half-maximal percent activity.

recombinant TDO2 = recombinant TDO2 (Homo sapiens, UniProt P48775); test: TDO2 enzymatic assay (UV absorption, N-formylkynurenine formation); type: biochemical; conditions: for pIC50: 50 nM TDO2, 200 μM tryptophan, 60 min, room temperature, read-out: Enzyme TDO IC50; for Enzyme TDO IC50 ratio compared to Ref. Cmpd 1: IC50 of compound divided by IC50 of Ref. Cmpd 1
Chain of recombinant TDO2 (P48775 whole entry, species assumed): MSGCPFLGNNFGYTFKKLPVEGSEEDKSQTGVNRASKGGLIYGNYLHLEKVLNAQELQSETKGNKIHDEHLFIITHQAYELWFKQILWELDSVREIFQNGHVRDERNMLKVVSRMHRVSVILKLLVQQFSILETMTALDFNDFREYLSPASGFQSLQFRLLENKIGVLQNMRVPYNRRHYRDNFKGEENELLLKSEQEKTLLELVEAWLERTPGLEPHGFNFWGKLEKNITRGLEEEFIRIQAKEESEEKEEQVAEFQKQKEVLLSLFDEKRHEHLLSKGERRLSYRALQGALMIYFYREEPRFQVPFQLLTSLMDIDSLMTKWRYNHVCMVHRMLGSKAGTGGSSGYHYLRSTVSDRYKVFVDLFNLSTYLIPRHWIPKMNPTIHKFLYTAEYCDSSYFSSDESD
Description: as §1, §2
TDO2 Assay: All of the reactions were conducted at room temperature. The 100 μl reaction mixture in TDO2 Assay Buffer contains 50 nM TDO2, the indicated amount of the compound, 200 μM tryptophan, and the coupled reaction components. The reaction mixture was incubated for 60 min prior to reading of the UV absorption signal. For the negative control (blank), 5 μl of the assay buffer was added instead of the TDO2.
as §3
as §4, with “The percent inhibition was calculated according to the following equation: % inhibition=100−% activity.” left out

Row | pIC50 (recombinant IDO1) | Enzyme IDO IC50 ratio compared to Cmpd 2 (recombinant IDO1) | pIC50 (recombinant TDO2) | Enzyme TDO IC50 ratio compared to Ref. Cmpd 1 (recombinant TDO2) | SMILES
1 | 5.92 | 32.43 | 5.72 | 5.67 | OC1CCC(C(F)CC2Cc3ccccc3-c3cncn32)CC1 (centres unmarked) [Cmpd 310]
2 | 4.90 | 142.05 | 5.51 | 3.87 | OC(C1CCCCC1)C1CC1c1c(F)cccc1-c1c[nH]cn1 (centres unmarked) [Cmpd 304]
3 | 5.26 | 105.77 | 5.12 | 33.33 | OC(CC1C(O)c2ccccc2-c2cncn21)C1CCCCC1 (centres unmarked) [Cmpd 309]
4 | 6.51 | 8.38 | 6.95 | 0.33 | FC(CC1Cc2ccccc2-c2cncn21)C1CCCCC1 (centres unmarked) [Cmpd 311]
5 | 4.88 | 195.52 | 5.64 | 2.30 | CC1(CC(O)C2CCCCC2)c2ccccc2-c2cncn21 (centres unmarked) [Cmpd 296]
6 | 4.85 | 129.63 | 5.66 | 6.90 | OC(CC1c2ccccc2Cc2cncn21)C1CCCCC1 (centres unmarked) [Cmpd 297]
7 | < 4.52 |  | < 4.52 |  | CC1c2ccccc2-c2cncn2C1C(O)C1CCCCC1 (centres unmarked) [Cmpd 294]
8 | < 4.00 |  | < 4.00 |  | OC1CCC(C(O)CC2(C(F)(F)F)c3c(F)cccc3-c3cncn32)CC1 (centres unmarked) [Cmpd 293]
9 | 6.88 | 1.51 | 7.02 | 0.12 | FC(CC1Cc2ccccc2-c2cncn21)C1CCCCC1 (centres unmarked) [Cmpd 301]
10 | 4.64 | 442.31 | 4.85 | 62.28 | OC(CC1C(O)c2ccccc2-c2cncn21)C1CCCCC1 (centres unmarked) [Cmpd 308]
11 | < 4.52 |  | 5.04 | 11.47 | OC(/C=C/c1c(F)cccc1-c1c[nH]cn1)C1CCCCC1 (centres unmarked) [Cmpd 303]
12 | 6.48 | 8.00 | 6.78 | 0.78 | O[C@@H](C[C@H]1Cn2cncc2-c2ccccc21)C1CCCCC1 (racemic) [Cmpd 305]
13 | 6.52 | 7.29 | 7.28 | 0.25 | FC(CC1Cn2cncc2-c2ccccc21)C1CCCCC1 (centres unmarked) [Cmpd 307]
14 | 6.83 | 3.47 | 6.78 | 0.43 | OC(CC1Cc2ccccc2-c2cncn21)C1CCCCC1 (centres unmarked) [Cmpd 278]
15 | 4.84 | 216.42 | 5.08 | 8.40 | CC1c2ccccc2-c2cncn2C1C(O)C1CCCCC1 (centres unmarked) [Cmpd 295]
16 | 5.15 | 165.12 | 5.63 | 6.21 | OC(CC1CCc2ccccc2-c2cncn21)C1CCCCC1 (centres unmarked) [Cmpd 279]
17 | < 4.52 |  | < 4.52 |  | OC1c2ccccc2C(CC(O)C2CCCCC2)n2cncc21 (centres unmarked) [Cmpd 298]
18 | < 4.00 |  | < 4.00 |  | OC1CCC(C(O)CC2(C(F)(F)F)c3c(F)cccc3-c3cncn32)CC1 (centres unmarked) [Cmpd 292]
19 | 7.31 | 1.32 | 7.11 | 0.23 | FC(CC1Cc2ccccc2-c2cncn21)C1CCCCC1 (centres unmarked) [Cmpd 312]
20 | 4.70 | 226.14 | 4.81 | 19.33 | OC(CCc1c(F)cccc1-c1c[nH]cn1)C1CCCCC1 (centres unmarked) [Cmpd 302]
21 | 5.92 | 29.27 | 6.54 | 1.35 | O[C@@H](C[C@@H]1Cn2cncc2-c2ccccc21)C1CCCCC1 (racemic) [Cmpd 306]

Row | SMILES | pIC50 (recombinant IDO1) | Enzyme IDO IC50 ratio compared to Cmpd 2 (recombinant IDO1) | pIC50 (recombinant TDO2) | Enzyme TDO IC50 ratio compared to Ref. Cmpd 1 (recombinant TDO2)
22 | OC(CC1(C(F)(F)F)c2ccccc2-c2cncn21)C1CCCCC1 (single isomer, unassigned) [Cmpd 290] | < 4.00 |  |  | 18.75
23 | OC(CC1(C(F)(F)F)c2ccccc2-c2cncn21)C1CCCCC1 (centres unmarked) [Cmpd 291] | < 4.00 |  | 4.59 | 16.25
